Key:
[1] = system: mammalian enzymes, receptors and ion channels; assay: Safety pharmacology: affinity for a broad array of mammalian enzymes, receptors and ion channels; type: binding
Standard Ames study = type: cell-based
cytochrome P450 enzymes = assay: Inhibition of representative cytochrome P450 enzymes; type: in vitro ADME; details: 10 uM
[2] = High dose 7-day toxicology studies in rats; type: in vivo; details: high dose 7-day toxicology studies, oral
[3] = system: T. cruzi intracellular amastigotes; assay: In vitro anti-T. cruzi amastigote growth inhibition assay (tdTomato fluorescence, 72 hours, Vero cells); type: cell-based, Trypanosoma cruzi; details: for in vitro activity against T. cruzi: in words
Description: (§1) The in vitro anti-T. cruzi amastiogote activity assay was performed and optimized based on the protocol described previously (Canavaci, et al., PLoS neglected tropical diseases 4, e740 (2010)). The change in tdTomato fluorescence intensity was determined as a measurement of growth over 72 hours of culture. For assaying drug effects on extracellular amastigotes, trypomastigotes were collected from infected Vero cell cultures and converted in acidic media as previously described (Tomlinson, et al., Parasitology 110 (Pt 5), 547-554 (1995)). Amastigotes (50,000/well) were incubated with 2-fold serial dilutions of compounds for 48 hours. The ATP production was used as an indication of growth in this case, and was measured by ATPlite Luminescence ATP Detection Assay System (PerkinElmer). Both fluorescence and luminescence were read using a BioTek Synergy Hybrid Multi-Mode reader equipped with the software Gene5 v 2.0 (BioTek). The dose-response curve was generated by […] analysis with GraphPad Prism v9.4.0 (GraphPad Software). IC50 was determined as the drug concentration that was required to inhibit 50% of growth compared to that of parasites with no drug exposure.

[4] = in vivo
T. cruzi (Brazil strain) = details: cited from earlier work
[5] = system: T. cruzi (Colombiana strain); assay: BNZ prophylaxis in mice (bioluminescence imaging, T-cell phenotyping, tissue qPCR); type: in vivo, Trypanosoma cruzi; details: for luciferase signal: 100 mg/kg twice weekly
Description: For the studies in mice, female mice, 8-12 weeks old were used for infections throughout the study. Sample sizes were determined based upon knowledge of heterogeneity in parasite burden during T. cruzi infection and published reports using similar experimental strategies. Data collected were included if productive T. cruzi infection was established (visualized by luciferase imaging or flow cytometry by detection of T. cruzi-tetramer specific CD8^+ T cells). The investigators were not blinded during the collection or analysis of data and mice were randomly assigned to treatment groups prior to the start of each experiment.
C57BL/6J (Stock No:000664) mice (C57BL/6 wild-type) were purchased from The Jackson Laboratory (Bar Harbor, ME) and C57BL/6J-IFN-gamma knockout mice (also known as B6.129S7-Ifngtm1 Ts/J; The Jackson Laboratory stock No 002287) were bred in-house at the University of Georgia Animal Facility. All the animals were maintained in the University of Georgia Animal Facility under specific pathogen-free conditions. T. cruzi tissue culture trypomastigotes of the Colombiana strain co-expressing firefly luciferase and tdTomato reporter proteins, generated as described previously (Sanchez-Valdez, et al., eLife 7 (2018), Bustamante, et al., Sci Transl Med. 12(567) 2020)), were maintained through passage in Vero cells (American Type Culture Collection (Manassas, VA)) cultured in RPMI 1640 medium with 10% fetal bovine serum at 37° C. in an atmosphere of 5% CO2. Mice were infected intraperitoneally with 10^3 tissue culture trypomastigotes of T. cruzi. This study was carried out in strict accordance with the Public Health Service Policy on Humane Care and Use of Laboratory Animals and Association for Assessment and Accreditation of Laboratory Animal Care accreditation guidelines. The protocol was approved by the University of Georgia Institutional Animal Care and Use Committee.
Mice were treated with benznidazole twice weekly at a 100 mg/kg/day and infected midway during the 3rd week of treatment (FIG. 8A). Benznidazole (BNZ—Elea Phoenix, Buenos Aires, Argentina) was prepared by pulverization of tablets followed by suspension in an aqueous solution of 1% sodium carboxymethylcellulose with 0.1% Tween 80 and delivered orally by gavage at a concentration dosage of 100 mg/kg of body weight. Each mouse received 0.2 ml of this suspension. Luciferase-expressing parasites were quantified in mice by bioluminescent detection. Mice were injected intraperitoneally with D-luciferin (150 mg/kg; PerkinElmer, Waltham, MA) and anesthetized using 2.5% (vol/vol) gaseous isofluorane in oxygen prior to imaging on an IVIS Lumina II imager (Xenogen, Alameda, CA) for an exposure time of 5 minutes, as previously described (Canavaci, et al., PLoS neglected tropical diseases 4(7):e740 (2010)). Quantification of bioluminescence and data analysis was performed using Aura Imaging Software version 4.0.7 (Spectral Instruments Imaging, Tucson, AZ).
Whole blood was incubated with a major histocompatibility complex I (MHC I) tetramer containing the T. cruzi transialidase TSKB20 peptide (ANYKFTLV (SEQ ID NO:124)/Kb) labeled with BV421 (Tetramer Core Facility at Emory University, Atlanta, GA) and the following labeled antibodies: anti-CD8 FITC, anti-CD4 APC EF780, anti-CD127 PE (BD Bioscience, San Jose, CA). At least 500,000 cells were acquired using a CyAn ADP flow cytometer (Beckman Coulter, Hialeah, Florida) and analyzed with FlowJo software v10.6.1 (Treestar, Inc., Ashland, OR).
[…]

T. cruzi [6] = assay: BNZ prophylaxis / treatment in kennel dogs (multiplex serology, blood PCR); type: in vivo, Trypanosoma cruzi; details: for impact of prophylaxis on new infections: high intensity transmission setting
Excerpt: For studies in dogs, a small network of kennels was formed in central and south Texas with a history of triatomine vector occurrence and canine Chagas disease with owners who were willing to participate in the study. Kennels are identified through (i) canine patients with Chagas disease presenting to the cardiology unit at the TAMU VMTH and (ii) the TAMU Kissing Bug Community Science program, in which many dog owners submit triatomines collected from large kennel environments. At these large kennels, dogs are primarily bred and trained to aid hunting parties. Approximately 40-80 dogs reside within each kennel, and the predominant breeds include Belgian Malinois, Brittany spaniels, English pointers, German shorthaired pointers, Labrador retrievers, and hound dogs. Dogs >3 months of age, including males and females, were eligible for enrollment. Dogs identified after blood screening as seronegative based on multiplex serology and PCR-negative were randomly assigned to treatment groups. Neither the investigators, private veterinarian providing care to the dogs in the field, nor the dog owners were blinded to the treatment groups and no placebo was given to control dogs. Informed consent was obtained from dog owners prior to their participation, and this study was approved by the Texas A&M University Institutional Committee on Animal Use and Care and the Clinical Research Review Committee.
The limit of detection was set at the lowest standard of 0.0017 parasite equivalents per 50 ng of DNA. For detection of T. cruzi infection in dogs, DNA was extracted from 250 uL of the buffy coat fraction of EDTA-treated blood using the E.Z.N.A Tissue DNA kit (Omega Bio-Tek, Norcross, GA, USA) according to the manufacturer's protocol except 50 μL of elution buffer was used. T. cruzi-negative controls (phosphate buffered saline) were included in the DNA extractions. Samples were tested using qPCR for the presence of T. cruzi satellite DNA using the Cruzi 1/2 primer set and Cruzi 3 probe in a real-time assay, which amplifies a 166-bp segment of a repetitive nuclear DNA (Piron, et al., Acta tropica. 103(3):195-200 (2007), Cummings & Tarleton, Molecular and biochemical parasitology 129(1):53-9 (2003)) as previously described (Meyers, et al., PLoS neglected tropical diseases 11(8) 2017)). A sample was considered T. cruzi-positive if the Ct value was <35 (Curtis-Robles, et al., Vet Parasitol Reg Stud Reports 12:85-8 (2018)).
The 67 animals considered infection-negative were randomly assigned to either a control (no therapy) or a prophylactic group, which received twice weekly doses of BNZ at a level of not less than 10 mg/kg. This dosage is approximately the normal daily dose previously used (mostly ineffectively) to attempt drug-cure in dogs (Guedes, et al., Acta tropica. 84(1):9-17 (2002), Santos, et al., The Journal of antimicrobial chemotherapy. 67(8):1987-95 (2012), Cunha, et al., Experimental parasitology. 204:107711 (2019)). Dogs in these groups were then re-sampled 10-12 weeks (considered the midpoint of the transmission season) and ˜24 weeks (end of season).

T. cruzi [7] = details: T. cruzi-infected NHPs; cited from earlier work
CPSF3 = details: T. b. brucei; cited from earlier work
[8] = system: T. cruzi extracellular amastigotes; assay: Extracellular amastigote assay (ATPlite ATP production, 48 hours); type: cell-based, Trypanosoma cruzi; details: relative to parent ester (FIG. 2A)
Description: as §1

[9] = dog BEHE4, 30 mg/kg twice a week, 24 week sample point

Cc1c(C(=O)N[C@H](C(=O)OCc2ccc(F)cc2)C(C)(C)O)ccc2c1B(O)OC2 [AN14817]
affinity for a broad array of mammalian enzymes, receptors and ion channels [1]: little to no affinity
genotoxicity, Ames (Standard Ames study): non-genotoxic
inhibition of representative cytochrome P450 enzymes (cytochrome P450 enzymes): did not demonstrate significant inhibition
dose proportionality of exposure [2]: non-dose proportional exposure

Cc1c(C(=O)NC(C(=O)OCCN2CCOCC2)C(C)C)ccc2c1B(O)OC2 (centres unmarked) [AN15129]
in vitro activity against T. cruzi [3]: less active than neutral compounds

Cc1c(C(=O)N[C@H](C(=O)OCc2ccccc2)C(C)C)ccc2c1B(O)OC2 [AN11735]
IC50 ([3]; read-out: in vitro activity against T. cruzi (IC50)): < 10 nM

Cc1c(C(=O)N[C@H](C(=O)OCc2ccc(S(C)(=O)=O)cc2)C(C)C)ccc2c1B(O)OC2 [AN14561]
in vitro activity against T. cruzi [3]: significantly less potent

O=C(Nc1ccc2c(c1)B(O)OC2)c1ccc(F)cc1C(F)(F)F [AN4169]
therapeutic margin in rodent tolerability studies [4]: insufficient therapeutic margin
cure of mice (T. cruzi (Brazil strain); mice infected with T. cruzi Brazil strain): 100%

O=C(Cn1ccnc1[N+](=O)[O-])NCc1ccccc1 [benznidazole]
mice systemically parasite-positive ([5]; IFNγ KO mice, within 4 weeks of termination of prophylaxis): 4 of 5
overall effect of prophylaxis regimen ([5]; WT mice): prevented or truncated an infection in most cases
luciferase signal ([5]; WT mice, day 14 post-exposure or beyond): none of the mice in the BNZ-treated WT group had a detectable luciferase signal above background
mice negative for T. cruzi DNA (qPCR of skeletal muscle, heart, gut) ([5]; WT mice, week 33): at least 3 of the 5
fraction of CD127+ cells in the TSKb20-specific CD8+ T cell population ([5]; mice under prophylaxis vs no prophylaxis, through 21st week): substantially higher fraction of CD127+ cells
luciferase signal ([5]; some IFNγ KO mice, day 14 post-exposure (not at 12 weeks)): low level signal
blood PCR (T. cruzi [6]; [9]): PCR negative
serology (T. cruzi [6]; [9]): seronegative
impact of prophylaxis on new infections (T. cruzi [6]; dogs): no impact on the incidence of new infections
impact of prophylaxis on new infections (T. cruzi [6]; dogs, listed as BNZ): no impact on the number of new infections
new infections (T. cruzi [6]; dogs, prophylaxis group, twice weekly not less than 10 mg/kg): 26.5%
cure of established infections (T. cruzi (Brazil strain); mice, weekly or twice weekly high dose (2.5-5× normal daily dose)): could cure established infections
generation of cure with 20 days of treatment (T. cruzi (Brazil strain); mice): only partially effective
failures in treatment trials (T. cruzi [7]): > 60%

Cc1c(C(=O)N[C@H](C(=O)OCc2ccc(F)cc2)C(C)C)ccc2c1B(O)OC2 [AN11736]
effect of CPSF3 overexpression on killing (CPSF3): induced resistance to killing

Cc1c(C(=O)N[C@H](C(=O)O)C(C)C)ccc2c1B(O)OC2 [AN14667]
reduced activity on intracellular amastigotes ([3]; relative to parent ester (FIG. 2A)): ~1000 fold
reduced activity on extracellular amastigotes [8]: ~1000 fold

CC(C)[C@H](NC(=O)c1ccc2c(c1)B(O)OC2)C(=O)OCc1ccccc1 [AN10443]
in vitro activity against T. cruzi [3]: submicromolar activity
metabolic stability in mouse S9 liver fraction assay: good metabolic stability

CC[C@@H]([C@H](C)O)n1ncn(-c2ccc(N3CCN(c4ccc(OC[C@@H]5CO[C@@](Cn6cncn6)(c6ccc(F)cc6F)C5)cc4)CC3)cc2)c1=O [posaconazole]
failures in treatment trials (T. cruzi [7]): 100%

Source: patent US20240133884A1, “COMPOSITIONS AND METHODS FOR DETECTING TRYPANOSOMA CRUZI INFECTION” (University of Georgia Research Foundation, Inc., priority 2022, published 2024)
